# Laboratory results reported in US12410208B2, “(2-acetamidyl)thio-beta-D-galactopyranoside derivatives” (Idorsia Pharmaceuticals Ltd, priority 2020, dated 2025).
# Read-outs that look alike come from different tables or passages of the source.
# Legend:
# [1] = molecular target: human Gal-1 (hGal-1) (Homo sapiens, UniProt P09382); assay: Competitive binding assay: biotinylated hGal-1 binding to microplate-adsorbed asialofetuin (ASF), spectrophotometric; conditions: hGal-1 binding to asialofetuin; Table 15; R and S epimers of selected Examples also listed; read-out: IC50 (Galectin-1 inhibition)
# Sequence of human Gal-1 (hGal-1) (P09382 whole entry): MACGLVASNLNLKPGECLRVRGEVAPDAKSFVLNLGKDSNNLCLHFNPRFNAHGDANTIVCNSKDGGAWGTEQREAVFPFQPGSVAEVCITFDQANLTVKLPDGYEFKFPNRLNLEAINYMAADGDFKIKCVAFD
# Experimental: (§1) Biological Assay Evaluation of Compound Inhibitory Activity (IC50)
# The inhibitory activity of compounds is determined in competitive binding assays. This spectrophotometric assay measures the binding of biotinylated human Gal-3 (hGal-3) or human Gal-1 (hGal-1), respectively, to a microplate-adsorbed glycoprotein, asialofetuin (ASF) (Proc Natl Acad Sci USA. 2013 Mar. 26; 110(13):5052-7.).
# Briefly, compounds are serially diluted in DMSO (working dilutions). ASF-coated 384well plates are supplemented with 22.8 μL/well of biotinylated hGal-3 or hGal-1 in assay buffer (i.e. 300-1000 ng/mL biotinylated hGal-3 or hGal-1) to which 1.2 μL of compound working dilutions are added and mixed.
# (§2) Plates are incubated for 3 hours at 4° C., then washed with cold assay buffer (3×50 uL), incubated for 1 hour with 25 μL/well of a streptavidin-peroxidase solution (diluted in assay buffer to 80 ng/mL) at 4° C., followed by further washing steps with assay buffer (3×50 uL). Finally, 25 μL/well of ABTS substrate is added.
# (§3) The calculated IC50 values may fluctuate depending on the daily assay performance. Fluctuations of this kind are known to those skilled in the art. IC50 values from several measurements are given as mean values.
# [2] = molecular target: biotinylated human Gal-3 (hGal-3) (Homo sapiens, UniProt P17931); assay: Competitive binding assay: biotinylated hGal-3 binding to microplate-adsorbed asialofetuin (ASF), spectrophotometric
# Sequence of biotinylated human Gal-3 (hGal-3) (P17931 whole entry): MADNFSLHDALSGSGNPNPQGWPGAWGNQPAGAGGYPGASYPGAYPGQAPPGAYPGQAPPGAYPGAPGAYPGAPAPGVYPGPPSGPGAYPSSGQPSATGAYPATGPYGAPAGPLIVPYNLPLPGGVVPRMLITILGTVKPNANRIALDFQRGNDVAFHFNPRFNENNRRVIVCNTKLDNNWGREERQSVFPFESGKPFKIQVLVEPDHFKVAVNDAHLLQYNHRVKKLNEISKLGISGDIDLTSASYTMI
# Experimental: If not explicitly mentioned otherwise, the inhibition data refer to the binding of biotinylated human Gal-3 (hGal-3).
# as §1
# The inhibitory activity of compounds is determined in competitive binding assays.
# Briefly, compounds are serially diluted in DMSO (working dilutions).
# as §2, §3
# [3] = Gal-3 inhibition, Table 5, read-out: IC50
# [4] = Table 10, hGal-3, read-out: IC50 (Gal-3 inhibition)
# [5] = Gal-3 inhibition, Table 7, read-out: IC50
Molecule,IC50 [1] [nM],further results
"CCN(C)C(=O)[C@H](S[C@@H]1O[C@H](CO)[C@H](O)[C@H](n2cc(-c3cc(F)c(F)c(F)c3)nn2)[C@H]1O)C1(O)CCN(C(=O)OC)CC1 [Example 2.50.203R., (R)-Methyl 4-(1-(((2S,3R,4S,5R,6R)-3,5-dihydroxy-6-(hydroxymethyl)-4-(4-(3,4,5-trifluorophenyl)-1H-1,2,3-triazol-1-yl)tetrahydro-2H-pyran-2-yl)thio)-2-(ethyl(methyl)amino)-2-oxoethyl)-4-hydroxypiperidine-1-carboxylate]",10500,"IC50 ([2]; Table 8, hGal-3, read-out: IC50 (Gal-3 inhibition)): 4450 nM"
"CCN(C)C(=O)C(S[C@@H]1O[C@H](CO)[C@H](O)[C@H](n2cc(-c3nc(Br)cs3)nn2)[C@H]1O)C1(O)CCOCC1 (stereo partly drawn) [Example 14.41.203., 2-(((2S,3R,4S,5R,6R)-4-(4-(4-Bromothiazol-2-yl)-1H-1,2,3-triazol-1-yl)-3,5-dihydroxy-6-(hydroxymethyl)tetrahydro-2H-pyran-2-yl)thio)-N-ethyl-2-(4-hydroxytetrahydro-2H-pyran-4-yl)-N-methylacetamide]",30,"IC50 ([2]; Table 11, hGal-3, read-out: IC50 (Gal-3 inhibition)): 150 nM"
"O=C([C@@H](S[C@@H]1O[C@H](CO)[C@H](O)[C@H](n2cc(-c3cc(F)c(F)c(F)c3)nn2)[C@H]1O)C1(O)CCC1)N1CCC1 [Example 2.34.206S., (S)-1-(Azetidin-1-yl)-2-(((2S,3R,4S,5R,6R)-3,5-dihydroxy-6-(hydroxymethyl)-4-(4-(3,4,5-trifluorophenyl)-1H-1,2,3-triazol-1-yl)tetrahydro-2H-pyran-2-yl)thio)-2-(1-hydroxycyclobutyl)ethan-1-one]",620,"IC50 [2, 3]: 340 nM"
"CN(Cc1cn(C)cn1)C(=O)C(S[C@@H]1O[C@H](CO)[C@H](O)[C@H](n2cc(-c3cc(F)c(F)c(F)c3)nn2)[C@H]1O)C(C)(C)O (stereo partly drawn) [Example 2.31.215., 2-(((2S,3R,4S,5R,6R)-3,5-Dihydroxy-6-(hydroxymethyl)-4-(4-(3,4,5-trifluorophenyl)-1H-1,2,3-triazol-1-yl)tetrahydro-2H-pyran-2-yl)thio)-3-hydroxy-N,3-dimethyl-N-((1-methyl-1H-imidazol-4-yl)methyl)butanamide]",1680,"IC50 ([2]; Table 6, hGal-3, read-out: IC50 (Gal-3 inhibition)): 190 nM"
CCN(CC1CC(F)(F)C1)C(=O)C(S[C@@H]1O[C@H](CO)[C@H](O)[C@H](n2cc(-c3cc(F)c(F)c(F)c3)nn2)[C@H]1OC)C1(O)CCC(F)(F)CC1 (some centres unmarked) [Example 2.44.256.I.],130,"IC50 [2, 4]: 50 nM"
"CCC(O)C(S[C@@H]1O[C@H](CO)[C@H](O)[C@H](n2cc(-c3cc(F)c(F)c(F)c3)nn2)[C@H]1O)C(=O)N1CCC1 (stereo partly drawn) [Example 2.60.206., 1-(Azetidin-1-yl)-2-(((2S,3R,4S,5R,6R)-3,5-dihydroxy-6-(hydroxymethyl)-4-(4-(3,4,5-trifluorophenyl)-1H-1,2,3-triazol-1-yl)tetrahydro-2H-pyran-2-yl)thio)-3-hydroxypentan-1-one]",3400,"IC50 [2, 5]: 500 nM"
"CN(CC(F)(F)F)C(=O)[C@H](S[C@@H]1O[C@H](CO)[C@H](O)[C@H](n2cc(-c3cc(F)c(F)c(F)c3)nn2)[C@H]1O)C1(O)CCCCC1 [Example 2.39.219R., (R)-2-(((2S,3R,4S,5R,6R)-3,5-Dihydroxy-6-(hydroxymethyl)-4-(4-(3,4,5-trifluorophenyl)-1H-1,2,3-triazol-1-yl)tetrahydro-2H-pyran-2-yl)thio)-2-(1-hydroxycyclohexyl)-N-methyl-N-(2,2,2-trifluoroethyl)acetamide]",550,"IC50 [2, 3]: 270 nM"
"CN(CC1CC1)C(=O)C(S[C@@H]1O[C@H](CO)[C@H](O)[C@H](n2cc(-c3cc(F)c(F)c(F)c3)nn2)[C@H]1O)C(O)c1ccn(C)n1 (stereo partly drawn) [Example 2.65.218., N-(cyclopropylmethyl)-2-(((2S,3R,4S,5R,6R)-3,5-dihydroxy-6-(hydroxymethyl)-4-(4-(3,4,5-trifluorophenyl)-1H-1,2,3-triazol-1-yl)tetrahydro-2H-pyran-2-yl)thio)-3-hydroxy-N-methyl-3-(1-methyl-1H-pyrazol-3-yl)propanamide]",3070,"IC50 [2, 5]: 690 nM"
"CO[C@@H]1[C@@H](n2cc(-c3cc(F)c(F)c(F)c3)nn2)[C@@H](O)[C@@H](CO)O[C@H]1S[C@H](C(=O)N1CCC(F)(F)CC1)C1(O)CCC2(CCC2)CC1 [Example 2.69.226S.I., (S)-1-(4,4-Difluoropiperidin-1-yl)-2-(((2S,3R,4S,5R,6R)-5-hydroxy-6-(hydroxymethyl)-3-methoxy-4-(4-(3,4,5-trifluorophenyl)-1H-1,2,3-triazol-1-yl)tetrahydro-2H-pyran-2-yl)thio)-2-(7-hydroxyspiro[3.5]nonan-7-yl)ethan-1-one]",270,"IC50 ([2]; Table 13, hGal-3, read-out: IC50 (Gal-3 inhibition)): 120 nM"
CCN(Cc1ccccc1)C(=O)C(S[C@@H]1O[C@H](CO)[C@H](O)[C@H](n2cc(-c3cc(F)c(F)c(F)c3)nn2)[C@H]1OC)C1(O)CCC(F)(F)CC1 (some centres unmarked) [Example 2.44.240.I.],280,"IC50 [2, 4]: 40 nM"
"CO[C@@H]1[C@@H](n2cc(-c3cc(F)c(F)c(F)c3)nn2)[C@@H](O)[C@@H](CO)O[C@H]1SC(C(=O)NC1CCC(C)(C)CC1)C1(O)CCC(F)(F)CC1 (stereo partly drawn) [Example 2.44.255.I., 2-(4,4-Difluoro-1-hydroxycyclohexyl)-N-(4,4-dimethylcyclohexyl)-2-(((2S,3R,4S,5R,6R)-5-hydroxy-6-(hydroxymethyl)-3-methoxy-4-(4-(3,4,5-trifluorophenyl)-1H-1,2,3-triazol-1-yl)tetrahydro-2H-pyran-2-yl)thio)acetamide]",830,–
"Cc1cc(-c2cn([C@H]3[C@@H](O)[C@@H](CO)O[C@@H](S[C@@H](C(=O)N(C)C4CC4)C4(O)CCC(F)(F)CC4)[C@@H]3O)nn2)cnc1F [Example 21.44.221R., (R)-N-Cyclopropyl-2-(4,4-difluoro-1-hydroxycyclohexyl)-2-(((2S,3R,4S,5R,6R)-4-(4-(6-fluoro-5-methylpyridin-3-yl)-1H-1,2,3-triazol-1-yl)-3,5-dihydroxy-6-(hydroxymethyl)tetrahydro-2H-pyran-2-yl)thio)-N-methylacetamide]",220,–
"Cc1cc(-c2cn([C@H]3[C@@H](O)[C@@H](CO)O[C@@H](S[C@H](C(=O)N(C)C4CC4)C4(O)CCC(F)(F)CC4)[C@@H]3O)nn2)cnc1F [Example 21.44.221S., (S)-N-Cyclopropyl-2-(4,4-difluoro-1-hydroxycyclohexyl)-2-(((2S,3R,4S,5R,6R)-4-(4-(6-fluoro-5-methylpyridin-3-yl)-1H-1,2,3-triazol-1-yl)-3,5-dihydroxy-6-(hydroxymethyl)tetrahydro-2H-pyran-2-yl)thio)-N-methylacetamide]",70,–
"CC(C)(O)[C@H](S[C@@H]1O[C@H](CO)[C@H](O)[C@H](n2cc(-c3cc(F)c(F)c(F)c3)nn2)[C@H]1O)C(=O)N1CCCC1 [Example 2.31.211S., (S)-2-(((2S,3R,4S,5R,6R)-3,5-Dihydroxy-6-(hydroxymethyl)-4-(4-(3,4,5-trifluorophenyl)-1H-1,2,3-triazol-1-yl)tetrahydro-2H-pyran-2-yl)thio)-3-hydroxy-3-methyl-1-(pyrrolidin-1-yl)butan-1-one]",530,–
"(R)-2-(((2S,3R,4S,5R,6R)-3,5-dihydroxy-6-(hydroxymethyl)-4-(4-(3,4,5-trifluorophenyl)-1H-1,2,3-triazol-1-yl)tetrahydro-2H-pyran-2-yl)thio)-3-hydroxy-3-methyl-1-(3-methylazetidin-1-yl)butan-1-one [Example 2.31.205R.]",20000,–
CCC(O)C(S[C@@H]1O[C@H](CO)[C@H](O)[C@H](n2cc(-c3cc(F)c(F)c(F)c3)nn2)[C@H]1O)C(=O)N(C)CC1CC1 (some centres unmarked) [Example 2.60.218],200,–
"CC(C)(O)[C@@H](S[C@@H]1O[C@H](CO)[C@H](O)[C@H](n2cc(-c3cc(F)c(F)c(F)c3)nn2)[C@H]1O)C(=O)N1CCCC1 [Example 2.31.211R, (R)-2-(((2S,3R,4S,5R,6R)-3,5-Dihydroxy-6-(hydroxymethyl)-4-(4-(3,4,5-trifluorophenyl)-1H-1,2,3-triazol-1-yl)tetrahydro-2H-pyran-2-yl)thio)-3-hydroxy-3-methyl-1-(pyrrolidin-1-yl)butan-1-one]",2150,–
"CC1CN(C(=O)[C@@H](S[C@@H]2O[C@H](CO)[C@H](O)[C@H](n3cc(-c4cc(F)c(F)c(F)c4)nn3)[C@H]2O)C(C)(C)O)C1 [Example 2.31.205S., (S)-2-(((2S,3R,4S,5R,6R)-3,5-dihydroxy-6-(hydroxymethyl)-4-(4-(3,4,5-trifluorophenyl)-1H-1,2,3-triazol-1-yl)tetrahydro-2H-pyran-2-yl)thio)-3-hydroxy-3-methyl-1-(3-methylazetidin-1-yl)butan-1-one]",820,–
CCN(C)C(=O)C(S[C@@H]1O[C@H](CO)[C@H](O)[C@H](n2cc(-c3cc(F)c(F)c(F)c3)nn2)[C@H]1O)C(O)Cc1ccccc1 (some centres unmarked) [Example 2.64.203],1460,–
